Results from patent US9029359B2, “Heteroaryl Btk inhibitors” (Biogen Idec MA, Inc., priority 2009, dated 2015).

Biological target: T1, BTK (Homo sapiens, UniProt Q06187)
T1 construct: purchased Upstate 14-552
Assay: In vitro BTK kinase assay: BTK-POLYGAT-LS ASSAY
Assay type: biochemical
Settings: ATP 10 uM
Summary of the method: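 BTK phosphorylation of polyGAT (100 nM final) with ATP at 10 μM final, 10 mM Tris-HCl pH 7.5 kinase buffer, quenched by EDTA after 30 min. Potency given as IC50.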

T1 sequence (Q06187 whole entry): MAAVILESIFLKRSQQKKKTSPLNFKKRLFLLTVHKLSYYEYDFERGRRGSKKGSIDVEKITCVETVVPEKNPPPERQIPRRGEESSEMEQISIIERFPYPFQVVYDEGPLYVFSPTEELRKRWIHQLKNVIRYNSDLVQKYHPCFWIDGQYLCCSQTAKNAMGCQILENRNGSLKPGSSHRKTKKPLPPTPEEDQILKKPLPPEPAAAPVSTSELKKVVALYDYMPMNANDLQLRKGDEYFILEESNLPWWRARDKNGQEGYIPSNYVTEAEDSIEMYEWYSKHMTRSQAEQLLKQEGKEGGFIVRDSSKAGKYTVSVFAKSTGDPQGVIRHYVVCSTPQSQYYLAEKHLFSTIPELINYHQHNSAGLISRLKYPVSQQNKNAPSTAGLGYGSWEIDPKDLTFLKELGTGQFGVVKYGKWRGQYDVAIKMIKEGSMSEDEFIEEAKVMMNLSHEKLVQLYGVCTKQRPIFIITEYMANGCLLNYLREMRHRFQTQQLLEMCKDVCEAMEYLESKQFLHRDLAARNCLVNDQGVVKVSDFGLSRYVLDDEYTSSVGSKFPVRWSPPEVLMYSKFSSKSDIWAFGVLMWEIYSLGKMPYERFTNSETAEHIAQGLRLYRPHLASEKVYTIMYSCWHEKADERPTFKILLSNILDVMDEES

| Compound | IC50 [nM] |
| --- | --- |
| CC[C@@H](Nc1ccccc1)C(=O)N[C@@H]1CCCN(c2ncnc3[nH]ccc23)C1 [Example 114, (R)—N—((R)-1-(7H-pyrrolo[2,3-d]pyrimidin-4-yl)piperidin-3-yl)-2-(phenylamino)butanamide] | < 100 |
| CC(C)c1ccccc1N[C@@H](C(=O)N[C@@H]1CCCN(c2ncnc3[nH]ncc23)C1)C1CC1 [Example 234] | 100 to 999 |
| COc1ccc(C)cc1NCC(=O)N[C@@H]1CCCN(c2ncnc3[nH]ccc23)C1 [Example 270] | < 100 |
| CC(C)c1ccccc1N[C@H](C)C(=O)N[C@@H]1CCCN(c2ncnc3[nH]ccc23)C1 [Example 269] | 100 to 999 |
| O=C(CNc1cccc(-n2cccn2)c1)NC1CCCN(c2ncnc3[nH]ccc23)C1 (stereo not drawn) [Example 77, (2-(3-(1H-pyrazol-1-yl)phenylamino)-N-(1-(7H-pyrrolo[2,3-d]pyrimidin-4-yl)piperidin-3-yl)acetamide)] | 100 to 999 |
| C[C@@H](O)[C@@H](Nc1ccccc1)C(=O)N[C@@H]1CCCN(c2ncnc3[nH]ccc23)C1 [Example 110, (2R,3R)—N—((R)-1-(7H-pyrrolo[2,3-d]pyrimidin-4-yl)piperidin-3-yl)-3-hydroxy-2-(phenylamino)butanamide] | 100 to 999 |
| CCN(CC)S(=O)(=O)c1ccccc1NCC(=O)N[C@@H]1CCCN(c2ncnc3[nH]ccc23)C1 [Example 208] | < 100 |
| CC(C)(C)C1CCN(S(=O)(=O)c2ccccc2NCC(=O)N[C@@H]2CCCN(c3ncnc4[nH]ccc34)C2)CC1 [Example 265] | < 100 |
| CC(C)C[C@@H](Nc1ccccc1)C(=O)N[C@@H]1CCCN(c2ncnc3[nH]ccc23)C1 [Example 105, (R)—N—((R)-1-(7H-pyrrolo[2,3-d]pyrimidin-4-yl)piperidin-3-yl)-4-methyl-2-(phenylamino)pentanamide] | 1000 to 10000 |
| O=C(CNc1ccccc1)N(Cc1ccccc1)C1CCCN(c2ncnc3[nH]ccc23)C1 (stereo not drawn) [Example 86, (N-(1-(7H-pyrrolo[2,3-d]pyrimidin-4-yl)piperidin-3-yl)-N-benzyl-2-(phenylamino)acetamide)] | 1000 to 10000 |
| O=C(CNc1ccccc1S(=O)(=O)N1CCCC1)N[C@@H]1CCCN(c2ncnc3[nH]ncc23)C1 [Example 205] | < 100 |
| CC(C)CCSc1ccccc1NCC(=O)N[C@@H]1CCCN(c2ncnc3[nH]ccc23)C1 [Example 188] | < 100 |
| Cc1c(Cl)cccc1NCC(=O)N[C@@H]1CCCN(c2ncnc3[nH]ccc23)C1 [Example 272] | < 100 |
| O=C(CNc1cccc(N2CCOCC2)c1)NC1CCCN(c2ncnc3[nH]ccc23)C1 (stereo not drawn) [Example 83, (N-(1-(7H-pyrrolo[2,3-d]pyrimidin-4-yl)piperidin-3-yl)-2-(3-morpholinophenylamino)acetamide)] | 1000 to 10000 |
| CCN(CC)S(=O)(=O)c1ccccc1NCC(=O)N[C@@H]1CCCN(c2ncnc3[nH]ncc23)C1 [Example 195] | < 100 |
| O=C(CNc1cc(C(F)(F)F)ccc1F)NC1CCCN(c2ncnc3[nH]ccc23)C1 (stereo not drawn) [Example 69, (N-(1-(7H-pyrrolo[2,3-d]pyrimidin-4-yl)piperidin-3-yl)-2-(2-fluoro-5-(trifluoromethyl)phenylamino)acetamide)] | 1000 to 10000 |
| Cc1c(Cl)cccc1NCC(=O)N[C@@H]1CCCN(c2ncnc3[nH]ccc23)C1 [Example 261] | 100 to 999 |
| CC1(C)CCCN(S(=O)(=O)c2ccccc2NCC(=O)N[C@@H]2CCCN(c3ncnc4[nH]ncc34)C2)C1 [Example 198] | < 100 |
| O=C(CNC(=O)c1cccc(Cl)c1)NC1CCCN(c2ncnc3[nH]ccc23)C1 (stereo not drawn) [Example 93, (N-(2-(1-(7H-pyrrolo[2,3-d]pyrimidin-4-yl)piperidin-3-ylamino)-2-oxoethyl)-3-chlorobenzamide)] | 1000 to 10000 |
| CC1(C)CCN(S(=O)(=O)c2ccccc2NCC(=O)N[C@@H]2CCCN(c3ncnc4[nH]ccc34)C2)CC1 [Example 250] | < 100 |
| Nc1ncnc(N2CCC[C@@H](NC(=O)CNc3cc(Cl)cc(Cl)c3)C2)c1Cl [Example 140, (R)—N-(1-(6-amino-5-chloropyrimidin-4-yl)piperidin-3-yl)-2-(3,5-dichlorophenylamino)acetamide] | 100 to 999 |
| CC(C)(C)c1cccc(NCC(=O)NC2CCCN(c3ncnc4[nH]ccc34)C2)c1 (stereo not drawn) [Example 18, (N-(1-(7H-pyrrolo[2,3-d]pyrimidin-4-yl)piperidin-3-yl)-2-(3-ten-butylphenylamino)acetamide)] | 100 to 999 |
| COc1c(Cl)cccc1NCC(=O)NC1CCCN(c2ncnc3[nH]ccc23)C1 (stereo not drawn) [Example 53, (N-(1-(7H-pyrrolo[2,3-d]pyrimidin-4-yl)piperidin-3-yl)-2-(3-chloro-2-methoxyphenylamino)acetamide)] | 100 to 999 |
| O=C(CNc1ccccc1S(=O)(=O)N1CCOCC1)N[C@@H]1CCCN(c2ncnc3[nH]ncc23)C1 [Example 242] | < 100 |
| O=C(CNC(=O)c1ccc2ccccc2c1)NC1CCCN(c2ncnc3[nH]ccc23)C1 (stereo not drawn) [Example 98] | 100 to 999 |
| CC[C@@H](Nc1cc(F)cc(Cl)c1)C(=O)N[C@@H]1CCCN(c2ncnc3[nH]ccc23)C1 [Example 225] | < 100 |
| CS(=O)(=O)CC[C@@H](Nc1ccccc1)C(=O)N[C@@H]1CCCN(c2ncnc3[nH]ccc23)C1 [Example 116, (R)—N—((R)-1-(7H-pyrrolo[2,3-d]pyrimidin-4-yl)piperidin-3-yl)-4-(methylsulfonyl)-2-(phenylamino)butanamide] | 1000 to 10000 |
| CC(=O)Nc1cc(N2CCC[C@@H](NC(=O)CNc3cc(Cl)cc(Cl)c3)C2)ncn1 [Example 141, (R)—N-(1-(6-acetamidopyrimidin-4-yl)piperidin-3-yl)-2-(3,5-dichlorophenylamino)acetamide] | 1000 to 10000 |
| CC(C)Nc1cc(N2CCC[C@@H](NC(=O)CNc3cc(Cl)cc(Cl)c3)C2)ncn1 [Example 142, (R)-2-(3,5-dichlorophenylamino)-N-(1-(6-(isopropylamino)pyrimidin-4-yl)piperidin-3-yl)acetamide] | 1000 to 10000 |
| O=C(CNC(=O)C1CCCCC1)NC1CCCN(c2ncnc3[nH]ccc23)C1 (stereo not drawn) [Example 99, (N-(2-(1-(7H-pyrrolo[2,3-d]pyrimidin-4-yl)piperidin-3-ylamino)-2-oxoethyl)cyclohexanecarboxamide)] | 1000 to 10000 |

The next lines start with the values.

| IC50 [nM] | Compound |
| --- | --- |
| < 100 | O=C(CNc1cc(F)cc(Cl)c1)N[C@@H]1CCCN(c2ncnc3[nH]ncc23)C1 [Example 385] |
| 100 to 999 | CC(C)(C)c1cccc(NCC(=O)N[C@@H]2CCCN(c3ncnc4[nH]ccc34)C2)c1 [Example 440] |
| 100 to 999 | CCC[C@@H](Nc1cccc2c1OC(F)(F)O2)C(=O)N[C@@H]1CCCN(c2ncnc3[nH]ncc23)C1 [Example 371] |
| > 10000 | O=C(CNc1cccc(CN2CCCCC2)c1)NC1CCCN(c2ncnc3[nH]ccc23)C1 (stereo not drawn) [Example 346] |
| 100 to 999 | Cc1ccc(F)c(NCC(=O)N[C@@H]2CCCN(c3ncnc4[nH]ccc34)C2)c1 [Example 386] |
| 100 to 999 | O=C(CNc1cccc(F)c1F)N[C@@H]1CCCN(c2ncnc3[nH]ccc23)C1 [Example 422] |
| > 10000 | O=C(CNc1cccc2nccn12)NC1CCCN(c2ncnc3[nH]ccc23)C1 (stereo not drawn) [Example 328] |
| 100 to 999 | O=C(CNc1cccc(OC(F)(F)C(F)F)c1)N[C@@H]1CCCN(c2ncnc3[nH]ccc23)C1 [Example 441] |
| 1000 to 10000 | O=C(CNc1cccc(-c2cc[nH]n2)c1)N[C@@H]1CCCN(c2ncnc3[nH]ccc23)C1 [Example 396] |
| 1000 to 10000 | O=C(CNc1ccccc1N1CCOCC1)N[C@@H]1CCCN(c2ncnc3[nH]ccc23)C1 [Example 444] |
| 100 to 999 | O=C(CNc1ccc(Cl)c(Cl)c1)N[C@@H]1CCCN(c2ncnc3[nH]ccc23)C1 [Example 286] |
| 100 to 999 | Nc1cc(N2CCC[C@@H](NC(=O)[C@H](Nc3cc(F)cc(Cl)c3)C3CC3)C2)ncn1 [Example 314] |
| 1000 to 10000 | Cc1nccc(-c2cccc(NCC(=O)N[C@@H]3CCCN(c4ncnc5[nH]ccc45)C3)c2)n1 [Example 436] |
| > 10000 | Cn1cccc(NCC(=O)NC2CCCN(c3ncnc4[nH]ccc34)C2)c1=O (stereo not drawn) [Example 342] |
| 100 to 999 | O=C(CNc1cc(F)c(F)cc1F)N[C@@H]1CCCN(c2ncnc3[nH]ccc23)C1 [Example 453] |
| > 10000 | O=C(CNc1cccc2c1OCCO2)NC1CCCN(c2ncnc3[nH]ccc23)C1 (stereo not drawn) [Example 336] |
| 100 to 999 | O=C(CNc1cccc(-c2cn3ccccc3n2)c1)N[C@@H]1CCCN(c2ncnc3[nH]ccc23)C1 [Example 304] |
| 100 to 999 | COc1cccc(NCC(=O)N[C@@H]2CCCN(c3ncnc4[nH]ccc34)C2)c1 [Example 322] |
| 100 to 999 | CN(C(C)(C)C)S(=O)(=O)c1ccccc1NCC(=O)N[C@@H]1CCCN(c2ncnc3[nH]ncc23)C1 [Example 368] |
| 100 to 999 | O=C(CNc1cc(Cl)ccc1Cl)N[C@@H]1CCCN(c2ncnc3[nH]ccc23)C1 [Example 319] |
| 1000 to 10000 | COc1ccc(C)c(NCC(=O)N[C@@H]2CCCN(c3ncnc4[nH]ccc34)C2)c1 [Example 451] |
| 100 to 999 | Cc1nc(-c2cccc(NCC(=O)N[C@@H]3CCCN(c4ncnc5[nH]ccc45)C3)c2)cs1 [Example 289] |
| 1000 to 10000 | N#Cc1ccc(NCC(=O)N[C@@H]2CCCN(c3ncnc4[nH]ccc34)C2)cc1 [Example 412] |
| 100 to 999 | COCCOc1ccc(C(F)(F)F)cc1NCC(=O)N[C@@H]1CCCN(c2ncnc3[nH]ccc23)C1 [Example 455] |
| > 10000 | O=C(CNC(=O)N1CCCCC1)NC1CCCN(c2ncnc3[nH]ccc23)C1 (stereo not drawn) [Example 330] |
| 100 to 999 | O=C(CNc1ccccc1OCC(F)(F)F)N[C@@H]1CCCN(c2ncnc3[nH]ccc23)C1 [Example 277] |
| < 100 | O=C(NC1CCCCN(c2ncnc3[nH]ncc23)C1)[C@H](Nc1cc(Cl)cc(Cl)c1)C1CC1 (stereo partly drawn) [Example 364] |
| 100 to 999 | CC1CN(S(=O)(=O)c2ccccc2NCC(=O)N[C@@H]2CCCN(c3ncnc4[nH]ccc34)C2)CC(C)O1 (stereo partly drawn) [Example 378] |
| > 10000 | COc1ccc(NCC(=O)NC2CCCN(c3ncnc4[nH]ccc34)C2)cc1 (stereo not drawn) [Example 348] |
| 100 to 999 | Cc1ccc(NCC(=O)N[C@@H]2CCCN(c3ncnc4[nH]ccc34)C2)cc1 [Example 426] |
